Two molecules from patent publication US20250098720A1, “SWEETENER COMPOSITIONS” (Firmenich SA, priority 2022, published 2025) can be followed below.

The structures appear in SMILES notation.

The nature of data set [1]: Sensory experiment, trained panel, sweet base (water solution containing sucrose at 4%). It is filed as in vivo, human. Particulars: 10 ppm compound in 4% sucrose base; twenty trained panelists. The protocol: (§1) Methodology: compounds 101 and 108 were evaluated as sweet modifiers in a sweet (water solution containing sucrose at 4%) or a sweet-sour base (mixture of inverted sugar and citric acid at 7% and 0.15%) at 10 ppm. Twenty trained panelists were asked to compare the intensity difference between reference and compound 101 or compound 108. The taste properties (such as sweet, sour) were evaluated on a scale of −5 to 5 (−5 denoted strong masking effect and 5 denoted strong enhancing effect, 0 being the intensity of reference.

Data set [2] can be described thus: pH value of the sweet-sour base with compound. It is filed as physicochemical. Particulars: 10 ppm compound in sweet-sour base of inverted sugar and citric acid.
A short description of data set [3]: Sensory experiment, trained panel, sweet-sour base (inverted sugar 7% and citric acid 0.15%). Format: in vivo, human. To be noted: 10 ppm compound in sweet-sour base of inverted sugar 7% and citric acid 0.15%. The method, then: as §1

With `O=C1CC(c2ccc(O)cc2)c2c(cc(O)c(C(=O)CCc3ccc(O)cc3)c2O)O1` (centres unmarked) [compound 108], the “sweet intensity versus reference (scale -5 to 5)” value (from here on “sweet intensity versus reference”) in data set [1] was “can increase sweet intensity”.
Consider `COc1cc(O)c(C(=O)CCc2ccc(O)cc2)c(O)c1C` [compound 101], for which, in data set [1], the “sweet intensity versus reference” value is on record as “can increase sweet intensity”. In addition, the “pH value of the base” value in data set [2] is listed as “without changing the pH value”. In data set [3], the “sour intensity versus reference (scale -5 to 5)” value is given as “significantly increase” and the “sweet intensity versus reference” value was “significantly increase”.
